{
  "source": "patent US20090042188A1",
  "about": "“Agent for Differentiating Hematopoietic Stem Cell Into Natural Killer Cell Comprising Vdup1 Protein or Gene Encoding the Same, and a Method of Differentiating Hematopoietic Stem Cell Into Natural Killer Cell Using Thereof” (Korea Research Institute of Bioscience and Biotechnology, priority 2005, published 2009)",
  "key": {"Yac-1": {"system": "Yac-1", "test": "51Cr release assay of NK cells differentiated in vitro under vitamin D3", "assay_type": "cell-based, mouse", "conditions": "10 nM vitamin D3 during differentiation, compared with vitamin D3 non-treating group (FIG. 16)", "protocol": "FIG. 16 is a graph showing the cytotoxicity, investigated by ^51Cr release assay, of NK cells for a target cell ‘Yac-1’ developed under the treatment of low concentration of vitamin D3 (10 nM). E/T means the ratio of effective cells to target cells.\n(§1) NK cells, differentiated in vitro or isolated from spleen, were treated with IL-2 (10 u/ml), followed by culture for 24 hours. After being washed, NK cells were plated, according to ratios of effector cells to target cells, into a 96 well plate (well round bottom plate, Falcon, USA) containing target cells (^51Cr-labeled Yac-1 cells, 10^4/well), followed by further culture for 4 hours. Upon completion of the culture, radioactivity of 100 ul of supernatant was measured by γ counter (FIG. 9).\nTo investigate the effect of vitamin D3, known to regulate VDUP1, on NK cell development, 1,25-dihydroxy vitamin D(3) was treated to each stage of differentiation from mouse HSCs into mNK cells via pNK. The cells were matured by the culture in the presence of OP9 and IL-15, then FACS analysis (FIG. 15) and ^51Cr release assay (FIG. 16) were performed."}, "mouse HSCs": {"system": "mouse HSCs", "test": "NK cell differentiation from HSCs under vitamin D3 treatment, FACS analysis of NK1.1-positive cells", "assay_type": "cell-based", "conditions": "vitamin D3 treated at each stage HSC to pNK to mNK; culture with OP9 and IL-15; FACS (FIG. 15)", "protocol": "FIG. 15 is a set of graphs showing the result of FACS analysis with NK cell group positive for NK1.1. Vitamin D3 was treated during the whole procedure of differentiation from HSCs of a wild type mouse into mNK via pNK, which was progressed by the cell culture in the presence of OP9 and IL-15, resulting in the confirmation of NK cell group positive for NK1.1.\nHSCs isolated from bone marrow in the above Example 1 were inoculated into 6-well plate (Falcon, USA) using a complete RPMI medium supplemented with mouse SCF (30 ng/ ? , BioSource, Camarillo, Calif.), mouse Flt3L (50 ng/ ? , PeproTech, Rocky Hill, N.J.), mouse IL-7 (0.5 ng/ ? , PeproTech), indomethacin (2 g/ ? , Sigma), gentamycin (20 g/ ? ) and 10% fetal bovine serum, at the concentration of 2×10^6 cells/well. The cells were cultured in a 37° C., 5% CO2 incubator for 6 days. […] The purity of the pNK cells was determined by FACS, confirming over 92% purity.\nTo generate mature NK cells (referred as “mNK cells” hereinafter), collected HSCs were cultured with or without OP9 stromal cells (Science, 265: 1098-1101, 1994) in the presence of mouse IL-15 (20 ng/ ? , PeproTech, USA). […] The purity of the mature NK cells was determined by flow cytometry (FACS) using anti-CD122, NK1.1, DX-5 and NK cell receptor antibodies. […]"}, "mature NK cells": {"system": "mature NK cells", "test": "51Cr release assay of mature spleen NK cells treated with IL-2 and vitamin D3", "assay_type": "cell-based", "conditions": "mature NK cells from wild type mouse spleen, vitamin D3 together with IL-2 for 24 hours (FIG. 17)", "protocol": "FIG. 17 is a graph showing the cytotoxicity of mature NK cells, separated from spleen of a wild type mouse, and then treated with IL-2 and/or vitamin D3 for 24 hours, detected by ^51Cr release assay.\nas §1\nFurther, mature NK cells were isolated from spleen of a wild type mouse. The cells were treated with vitamin D3 together with IL-2 for 24 hours, followed by ^51Cr release assay (FIG. 17)."}},
  "data": [
    {"smiles": "C=C1/C(=C\\C=C2/CCC[C@]3(C)[C@@H]([C@H](C)CCCC(C)(C)O)CC[C@@H]23)C[C@@H](O)C[C@@H]1O", "note": "[vitamin D3, 1,25-dihydroxy vitamin D(3)]", "values": [
      {"measurement": "NK mediated cytotoxicity for Yac-1", "setting": "Yac-1", "result": "increased"},
      {"measurement": "NK cell population (NK1.1 positive)", "setting": "mouse HSCs", "result": "increased by vitamin D3 in a dose dependent manner"},
      {"measurement": "NK mediated cytotoxicity", "setting": "mature NK cells", "result": "increased"}
    ]}
  ]
}
